Measured values reported in patent US20230346884A1, “Molecular Targets for Modulation of Dissociative and Associative States” (The Board of Trustees of the Leland Stanford Junior …, priority 2020, published 2023).
“Also recorded” adds a separate entry of the source.

Key:
[1] = tested on: retrosplenial cortex (RSP); assay: Widefield (pan-cortical) imaging of cortical activity in GCaMP6s mice; conditions: widefield imaging; i.p.; ketamine 50 mg/kg subanesthetic dose; other drugs at doses of b234
Method: (2 mg/kg), lidocaine (topical), LSD ((+)-Lysergic acid diethylamide (+)-tartrate (2:1), 0.3 mg/kg), and diazepam (2 mg/kg). […] For anti-depressant effects, human doses are typically 0.3-1 mg/kg, and in mouse 3-10 mg/kg.
As described^8, mice were anesthetized with isoflurane, the scalp was removed, the skull cleaned and dried, and a custom head-plate was cemented to contacts over the cerebellum and in front of the olfactory bulb. The skull was then covered in a thin layer of cyanoacrylate glue (Apollo 2000, Cyberbond), clear dental acrylic (Ortho-Jet, Lang Dental), and clear nail polish (Electron Microscopy Services). […] (0.1 mg/kg) was injected subcutaneously for pain management. […] Imaging was performed on a custom-built fluorescence microscope designed for high light collection efficiency and large field of view. […] Alternating 410 nm and 488 nm illumination for non-Ca^2+ dependent artifact removal was controlled using a microcontroller (Arduino) slaved to the frame output trigger of the camera.
Analysis was performed using custom MATLAB (MathWorks) scripts. Widefield imaging videos were registered to a 2D top-projection atlas generated from the annotated Allen Brain Atlas volume, version CCFv2, in MATLAB (MathWorks), using an affine transformation computed from four manually selected control points. Each video was DF/F normalized, using the median for each pixel over the entire time series as F. The 410 nm channel was then temporally smoothed using a moving average (width=400 ms). The smoothed 410 nm DF/F signal for each pixel was regressed onto the 488 nm DF/F signal for the corresponding pixel, and the regression coefficients were used to scale the 410 nm channel to the 488 nm channel. This scaled 410 nm DF/F signal was then subtracted from the 488 nm DF/F signal to produce a normalized signal for each pixel. For quantification, activity traces were extracted from points centered in five cortical regions (visual, somatosensory, parietal, motor, retrosplenial) on the left hemisphere of the brain. The video data was Gaussian smoothed spatially (radius=2 pixels). Similarly, for fiber photometry recordings, the 410 nm signal was regressed onto the 488 nm signal, the 410 nm signal was scaled by the regression coefficients, and then subtracted from the 488 nm signal.
Each trace (corresponding to either a fiber photometry signal, a cellular two-photon signal, a widefield regional centroid, a widefield pixel, an sEEG trace, or a smoothed spike rate Neuropixels trace) was z-scored, and the power spectral density (PSD) was then estimated using Welch's method (pwelch( ) in Matlab), with a window size of 10*fs (15*fs for human sEEG) where fs is the sampling rate of the signal. The average band power within a specified band (i.e. 1-3 Hz) was then computed by integrating the PSD estimate (bandpower in Matlab). For displaying the traces of individual cells, traces were each zscored by subtracting the mean value of the trace (across the whole recorded time window) and dividing by the standard deviation of the trace. Unless otherwise indicated, the PSD was computed across the time window from minutes 10 to 11 post-injection.

mice [2] = assay: Tail suspension test; assay type: in vivo, mouse; conditions: PCP 5 mg/kg
Method: Tail Suspension Test: Mouse activity was recorded using a 60 Hz web camera. Struggling activity was quantified for minutes 2-10. […] Illumination began 30 seconds before tails were secured with tape and suspended from the beam. Mice were excluded if they climbed on their own tails.

mice [3] = assay: Resident-intruder social interaction assay; assay type: in vivo, mouse; conditions: PCP 5 mg/kg
Method: Social Interaction Assay: Resident-intruder social interaction was recorded for two minutes. Interactions were defined as close physical proximity behaviors, including sniffing, touching, and following. […] Illumination began 30 seconds before the same-sex intruder mouse was introduced.

mice [4] = assay: Open field test; assay type: in vivo, mouse; conditions: 5 min; vs saline; doses of b234
Source text: Open Field Test: Mice were placed in an evenly illuminated 50 cm×50 cm open field test box. Mouse position was captured using a webcam and Viewer software (Biobserve).

mice [5] = assay: Hot plate test; conditions: for Dissociation-like behavior: disconnection between sensory-detection and affective responses: other drug classes, doses of b234
Method: Hot Plate Test: Mice were placed on the hot plate (Bioseb), which was set to 55° C. and surrounded by a clear circular perimeter. Mouse activity was recorded using two cameras from different angles. The experiment ended when the mouse jumped to escape or 90 seconds had elapsed. Care was taken to clean and dry the hot plate apparatus between animals. For optogenetic experiments, mice were connected to patch cords and then returned to a holding cage. Illumination began 30 seconds before mice were placed on the hot plate.

## c1ccc(C2(N3CCCCC3)CCCCC2)cc1 [PCP, phencyclidine]
[1]
  Cortical activity pattern: 1-3 Hz oscillation localized to retrosplenial cortex (RSP): induced the RSP-localized oscillation
Mice [2]
  Longer-timescale escape behavior: inhibited longer-timescale escape and social behaviors
Mice [3]
  Social behavior: inhibited longer-timescale escape and social behaviors
Mice [4]
  Open-field locomotion velocity: locomotion velocity was unchanged
Mice [5]
  Dissociation-like behavior: disconnection between sensory-detection and affective responses: recapitulated ketamine's behavioral disconnection between sensory-detection and affective responses in the hot-plate test

## CC(C)c1cccc(C(C)C)c1O [propofol]
[1]
  Cortical activity pattern: 1-3 Hz oscillation localized to retrosplenial cortex (RSP): elicited waves of cortical activity without RSP restriction

## CC12CC3CC(C)(C1)CC(N)(C3)C2 [Memantine, memantine]
[1]
  Cortical activity pattern: 1-3 Hz oscillation localized to retrosplenial cortex (RSP): did not elicit oscillation

## C[C@]12N[C@H](Cc3ccccc31)c1ccccc12 [MK-801]
[1]
  Cortical activity pattern: 1-3 Hz oscillation localized to retrosplenial cortex (RSP): induced the RSP-localized oscillation

## Cc1cccc([C@H](C)c2cnc[nH]2)c1C [dexmedetomidine]
[1]
  Cortical activity pattern: 1-3 Hz oscillation localized to retrosplenial cortex (RSP): elicited waves of cortical activity without RSP restriction

## CN1C(=O)CN=C(c2ccccc2)c2cc(Cl)ccc21 [diazepam]
[1]
  Cortical activity pattern: 1-3 Hz oscillation localized to retrosplenial cortex (RSP): Neither the GABAergic sedative diazepam nor the centrally-acting opioid-analgesic buprenorphine elicited the rhythm
Mice [4]
  Open-field locomotion velocity: decreased velocity
Mice [5]
  Dissociation-like behavior: disconnection between sensory-detection and affective responses: did not recapitulate dissociative-like behavior

## (+)-Lysergic acid diethylamide (+)-tartrate (2:1) [LSD]
[1]
  Cortical activity pattern: 1-3 Hz oscillation localized to retrosplenial cortex (RSP): did not elicit oscillation
Mice [4]
  Open-field locomotion velocity: reducing locomotion in the stimulus-poor open-field; also recorded: decreased velocity
Mice [5]; LSD 0.3 mg/kg
  Responsivity to salient stimuli (time-to-jump, rearing/socialization): tended to increase responsivity to salient stimuli (decreased time-to-jump, increased rearing/socialization)
Mice [5]
  Dissociation-like behavior: disconnection between sensory-detection and affective responses: disrupted neither sensory-detection nor affective responses
